Experimental data from PMC8874959 (Viruses, 2022).
Read-outs that look alike come from different tables or passages of the source.

Legend:
[1] = system: SARS-CoV-2 D614G
[2] = system: SARS-CoV-2 D614G; remark: listed apart in the source

OC(c1cc(C(F)(F)F)nc2c(C(F)(F)F)cccc12)C1CCCCN1 (centres unmarked) [Mefloquine]
EC50 [1]: 600 ± 30 nM

CCN(CC)CCCC(C)Nc1ccnc2cc(Cl)ccc12 (centres unmarked) [Chloroquine]
EC50 [2]: > 10 µM | EC90 [2]: > 10 µM | EC50 [1]: 1100 ± 70 nM | EC90 [1]: 3.5 ± 0.8 µM
